Test systems include DLD-1; DMS-114; DMS-273; HOP-18; KM-20L2; LXFL 529; RXF 631; XF498; M19-MEL.
What all share (test): DTP human tumour cell line panel, 48 h

We go through 26 compounds from ChEMBL document CHEMBL1201862, “PubChem BioAssay data set” (2004).

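Briefly, cells in 96-well plates were exposed to five compound concentrations for 48 h, and endpoints were estimated by linear interpolation. GI50 is the concentration that inhibits growth by half.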 Calls of active or inactive are those of the source. No stated cut-off is given here; in the data, active = GI50 up to about 1.1 µM and inactive = higher. Where only a bound is given, the exact number is not on record here.

On to `C=CC/N=C1\N=C(C)C(C(=O)OCC)S1` (stereo not given), for which the GI50 in the experiment with DLD-1, in the experiment on DMS-114, with DMS-273, in the experiment on HOP-18, in the experiment with KM-20L2 and with LXFL 529 was > 100 µM (inactive) in each case. Further, the GI50 with RXF 631 and in the experiment with XF498 was > 100 µM (inactive) in each case.
In the case of `COc1ccc2nc3ccccc3c(NCCCCCCN(CCCl)CCCl)c2c1`, the GI50 (in general, the concentration that inhibits growth by half) with DLD-1 is 0.109 µM (active); in the experiment on DMS-114, 0.155 µM (active); with DMS-273, 0.0328 µM (active); in the experiment on KM-20L2, 0.0776 µM (active); in the experiment on LXFL 529, 0.107 µM (active); with M19-MEL, 0.132 µM (active). The GI50 in the experiment with RXF 631 was 0.104 µM (active); in the experiment with XF498 it was 0.136 µM (active).
`O=C1C(C2=[N+]([O-])c3ccccc3C2=O)=[N+]([O-])c2ccccc21`: the GI50 was 23.9 µM (inactive) in the experiment with DLD-1; 17.9 µM (inactive) in the experiment with DMS-114; 30.9 µM (inactive) in the experiment with DMS-273; 20.2 µM (inactive) in the experiment on HOP-18; 17 µM (inactive) in the experiment with LXFL 529; 24.3 µM (inactive) with M19-MEL.
Consider `Cc1ccc(CC(C)N)cc1` (stereo not given), for which the GI50 in the experiment on DLD-1, in the experiment on DMS-114, in the experiment on DMS-273, with HOP-18, in the experiment with KM-20L2 and with LXFL 529 was > 100 µM (inactive) each time. For the same compound, in the experiment on RXF 631, the GI50 is > 100 µM (inactive).
Regarding `COc1ccccc1-n1c(C)nc2ccccc2c1=O`, the GI50 in the experiment with DLD-1, in the experiment on DMS-114, in the experiment with DMS-273, in the experiment with HOP-18, in the experiment on KM-20L2 and in the experiment on LXFL 529 was > 100 µM (inactive) each time. Besides, in the experiment with M19-MEL, the GI50 was > 100 µM (inactive).
Consider `COC12C=CC(CC1)c1c(O)ccc(O)c12` (stereo not given), for which the GI50 was 50.4 µM (inactive) in the experiment on DLD-1; 47.1 µM (inactive) in the experiment with DMS-114; 46 µM (inactive) with DMS-273; > 100 µM (inactive) with HOP-18; 82.8 µM (inactive) in the experiment on KM-20L2; 25.4 µM (inactive) with LXFL 529. Also, the GI50 in the experiment on M19-MEL was 22.5 µM (inactive); with XF498 it was 19.7 µM (inactive).
On to `O=C(O)CCCc1cc2c(s1)-c1cccc3cccc-2c13`, for which the GI50 in the experiment on DLD-1 is 39 µM (inactive); in the experiment with DMS-273 it was 37.8 µM (inactive); in the experiment with KM-20L2, 52.2 µM (inactive); in the experiment with LXFL 529, 35 µM (inactive); in the experiment on XF498 it was 36.6 µM (inactive).
Consider `Cc1cc(O)nc(NNC(C#N)c2ccco2)n1` (stereo not given), for which the GI50 in the experiment with DLD-1, in the experiment with DMS-114, with DMS-273, with HOP-18, in the experiment on KM-20L2 and in the experiment with LXFL 529 was > 100 µM (inactive) throughout. The GI50 with M19-MEL is > 100 µM (inactive).
On to `COc1cc(/C=C2\C(=O)N(C(=O)Cc3ccccc3)N=C2C)ccc1O`, for which the GI50 with DLD-1, with DMS-114, with DMS-273, in the experiment on HOP-18, in the experiment with M19-MEL and in the experiment on XF498 was > 100 µM (inactive) each time.
Regarding `CC1=CP(=O)(OC(C)C)C=C(C)C1=C(Cl)Cl` (stereo not given), the GI50 was > 100 µM (inactive) with DLD-1; 50.1 µM (inactive) in the experiment with DMS-114; 44.7 µM (inactive) with DMS-273; > 100 µM (inactive) in the experiment on HOP-18; 39.1 µM (inactive) with KM-20L2; 30.7 µM (inactive) in the experiment on LXFL 529. Also, the results for the GI50 in the experiment on M19-MEL, in the experiment with RXF 631 and in the experiment on XF498 were 38.4 µM (inactive), 11.8 µM (inactive) and > 100 µM (inactive), respectively.
Regarding `CC(C)(C)c1cc([Si](C)(C)C)c(C#N)c([Si](C)(C)C)c1`, the GI50 in the experiment with DLD-1 is > 100 µM (inactive); in the experiment on DMS-114 it was 33.8 µM (inactive); in the experiment on DMS-273, 49.1 µM (inactive); in the experiment on HOP-18, > 100 µM (inactive); in the experiment on KM-20L2, > 100 µM (inactive); with LXFL 529, > 100 µM (inactive). The GI50 is 43.2 µM (inactive) in the experiment on M19-MEL and 24.2 µM (inactive) with XF498.
In the case of `C/C(=N\NC(N)=S)c1ccc(C)c(C)c1`, the GI50 was 30.9 µM (inactive) in the experiment with DLD-1; 16.6 µM (inactive) with DMS-114; > 100 µM (inactive) with DMS-273; 30.6 µM (inactive) in the experiment on HOP-18; 44.7 µM (inactive) with KM-20L2; 19.4 µM (inactive) with LXFL 529. The figures for the GI50 in the experiment with M19-MEL, in the experiment with RXF 631 and with XF498 were 35.7 µM (inactive), 75.3 µM (inactive) and 19.4 µM (inactive), respectively.
Consider `CC(C)(c1ccc(Oc2ccc(C#N)c(C#N)c2)cc1)c1ccc(Oc2ccc(C#N)c(C#N)c2)cc1`, for which the GI50 in the experiment with DLD-1, with DMS-114, in the experiment on HOP-18, in the experiment with KM-20L2, in the experiment on LXFL 529 and with M19-MEL was > 10 µM (inactive) throughout. Further, the GI50 in the experiment on RXF 631 and in the experiment with XF498 was > 10 µM (inactive) throughout.
For the compound `Cc1cc(O)nc(NNC(C#N)c2cccc([N+](=O)[O-])c2)n1` (stereo not given), the GI50 with DLD-1, in the experiment on DMS-114, with DMS-273, in the experiment on HOP-18, in the experiment with KM-20L2 and in the experiment with LXFL 529 was > 100 µM (inactive) each time. Further, in the experiment on M19-MEL, the GI50 is > 100 µM (inactive).
As to `CC1=Nc2ccccc2SC(c2c(Cl)cccc2Cl)C1` (stereo not given), the GI50 was 0.331 µM (active) with DLD-1; 1.52 µM (inactive) in the experiment with DMS-114; 0.792 µM (active) in the experiment on DMS-273; 3.51 µM (inactive) in the experiment on HOP-18; 1.59 µM (inactive) with KM-20L2; 0.5 µM (active) in the experiment on LXFL 529. Moreover, the GI50 was 1.16 µM (inactive) in the experiment on M19-MEL and 1.8 µM (inactive) with XF498.
For `COc1ccc(/C(=N\NC(=O)C(N)=O)C(c2ccc(OC)cc2)C2(O)C(=O)Nc3c(Cl)cccc32)cc1` (stereo not given), the GI50 with DLD-1, with DMS-114, with HOP-18, in the experiment with KM-20L2, with LXFL 529 and in the experiment on M19-MEL was > 100 µM (inactive) in each case. Moreover, the GI50 in the experiment on XF498 is > 100 µM (inactive).
`CC/C(CC(=O)CCC(=O)Nc1ccccc1[N+](=O)[O-])=N/NC(=O)C[n+]1ccccc1`: the GI50 in the experiment on DMS-273, with HOP-18, in the experiment on KM-20L2, with LXFL 529, with M19-MEL and in the experiment with RXF 631 was > 100 µM (inactive) each time.
Take `CC1(C)CC(/C=C2/OC(=O)c3ccccc32)=C(C#N)C(=O)O1`: the GI50 in the experiment with DLD-1, in the experiment with DMS-273, in the experiment on KM-20L2, with LXFL 529, in the experiment on M19-MEL and with RXF 631 was > 100 µM (inactive) in each case. The GI50 in the experiment with XF498 was > 100 µM (inactive).
On to `COc1cc2c(c(O)c1C)C(=O)CC(c1ccccc1)O2` (stereo not given), for which the GI50 with DLD-1 was 55.2 µM (inactive); in the experiment on DMS-114 it was 50.7 µM (inactive); with HOP-18 it was 61 µM (inactive); in the experiment on KM-20L2, 15.1 µM (inactive); in the experiment with LXFL 529, 56.2 µM (inactive); in the experiment with M19-MEL, 45.8 µM (inactive). In the experiment with RXF 631, the GI50 was 41.4 µM (inactive).
On to `C[Si]1(C)C(c2ccccc2)=CC2C(c3ccccc3)(c3ccccc3)OC21c1ccccc1` (stereo not given), for which the GI50 is > 100 µM (inactive) with DLD-1; 97.9 µM (inactive) in the experiment on DMS-114; > 100 µM (inactive) with DMS-273; > 100 µM (inactive) in the experiment with HOP-18; 92.9 µM (inactive) in the experiment with KM-20L2; > 100 µM (inactive) in the experiment with LXFL 529. The GI50 in the experiment with M19-MEL, with RXF 631 and in the experiment on XF498 was > 100 µM (inactive) each time.
Take `COc1cc(Nc2nc3ccccc3nc2-c2cccs2)cc(OC)c1OC`: the GI50 in the experiment on DLD-1 is 23.7 µM (inactive); with DMS-273, 29.2 µM (inactive); with HOP-18 it was > 100 µM (inactive); with KM-20L2, 36.1 µM (inactive); with LXFL 529, 17.3 µM (inactive); in the experiment on M19-MEL it was 40.5 µM (inactive). Besides, the GI50 in the experiment with XF498 is 19.2 µM (inactive).
Turning to `COc1cc([C@@H]2c3cc4c(cc3[C@@H](NC(=O)c3cccc(C#N)c3)C3COC(=O)[C@@H]32)OCO4)cc(OC)c1O` (stereo not given in full), the GI50 was 2 µM (inactive) in the experiment with DLD-1; 0.0847 µM (active) with DMS-273; > 100 µM (inactive) with HOP-18; 1.63 µM (inactive) with KM-20L2; 5.93 µM (inactive) in the experiment with LXFL 529; 1.56 µM (inactive) with RXF 631.
Regarding `CC(C)N(C(=O)C12CC3CC(CC(C3)C1)C2)C(C)C`, the GI50 with DLD-1, in the experiment on DMS-114, in the experiment with DMS-273, in the experiment on HOP-18, in the experiment with KM-20L2 and in the experiment with LXFL 529 was > 50 µM (inactive) each time. In the experiment with M19-MEL, the GI50 was > 50 µM (inactive).
As for `CC(=O)Oc1cc(OC(C)=O)c(OC(C)=O)c2c1CC1C(=O)C3(CCc4ccccc43)C(=O)C1C2` (stereo not given), the GI50 in the experiment on DLD-1 was 14.2 µM (inactive); with DMS-114 it was 11.7 µM (inactive); in the experiment on DMS-273, 18.1 µM (inactive); in the experiment on HOP-18, 28.5 µM (inactive); in the experiment on KM-20L2 it was 22.8 µM (inactive); in the experiment with LXFL 529, 14.4 µM (inactive). Also, the values for the GI50 in the experiment on M19-MEL and in the experiment on XF498 were 15.7 µM (inactive) and 14.7 µM (inactive), respectively.
Consider `CN(C(=O)c1ccc([N+](=O)[O-])cc1)c1ccccc1`, for which the GI50 in the experiment on DLD-1 is > 100 µM (inactive); in the experiment on DMS-114, > 10 µM (inactive); with DMS-273, > 100 µM (inactive); with HOP-18, > 100 µM (inactive); in the experiment with KM-20L2, > 100 µM (inactive); in the experiment with LXFL 529, > 100 µM (inactive). Further, the GI50 with M19-MEL, in the experiment on RXF 631 and with XF498 was > 100 µM (inactive) in each case.
Take `Cc1ccc(Cn2c(C)nc3c2C(=O)c2ccccc2C3=O)cc1`: the GI50 in the experiment with DLD-1 was 1.22 µM (inactive); in the experiment on DMS-273 it was 1.07 µM (active); in the experiment on KM-20L2, 5.21 µM (inactive); in the experiment on LXFL 529 it was 1.72 µM (inactive); in the experiment on M19-MEL, 7.05 µM (inactive); with XF498, 15.1 µM (inactive).
